Tested on: NOMO1
Experiment: cell viability relative to DMSO control; higher = less cytotoxic
Details: 48 h
In short: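 Viability, reported as a per-plate percentage of DMSO wells with cell-free wells as background, came from CellTiter-Glo One luminescence. Reading took place after 48 h at 37°C. Before that, NOMO1 or SEM (500 cells/well) or P12-Ichikawa (1000 cells/well) leukemia cells, adapted for at least four passages in each medium, were seeded in 1536-well plates (5 μl) and pin-dosed with library compounds in DMSO, 47 μM to 0.79 nM over 11 threefold points.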

[1] = HPLM + 10% dialyzed FBS, 0.000781 µM
[2] = HPLM + 10% dialyzed FBS, 0.00234 µM
[3] = HPLM + 10% dialyzed FBS, 0.00702 µM
[4] = HPLM + 10% dialyzed FBS, 0.0211 µM
[5] = HPLM + 10% dialyzed FBS, 0.0632 µM
[6] = HPLM + 10% dialyzed FBS, 0.19 µM
[7] = HPLM + 10% dialyzed FBS, 0.569 µM
[8] = HPLM + 10% dialyzed FBS, 1.71 µM
[9] = HPLM + 10% dialyzed FBS, 5.12 µM
[10] = HPLM + 10% dialyzed FBS, 15.4 µM
[11] = HPLM + 10% dialyzed FBS, 46.1 µM
[12] = RPMI 5 mM glucose + 10% FBS, 0.000781 µM
[13] = RPMI 5 mM glucose + 10% FBS, 0.00234 µM
[14] = RPMI 5 mM glucose + 10% FBS, 0.00702 µM
[15] = RPMI 5 mM glucose + 10% FBS, 0.0211 µM
[16] = RPMI 5 mM glucose + 10% FBS, 0.0632 µM
[17] = RPMI 5 mM glucose + 10% FBS, 0.19 µM
[18] = RPMI 5 mM glucose + 10% FBS, 0.569 µM
[19] = RPMI 5 mM glucose + 10% FBS, 1.71 µM
[20] = RPMI 5 mM glucose + 10% FBS, 5.12 µM
[21] = RPMI 5 mM glucose + 10% FBS, 15.4 µM
[22] = RPMI 5 mM glucose + 10% FBS, 46.1 µM
[23] = RPMI 5 mM glucose + 10% dialyzed FBS, 0.000781 µM
[24] = RPMI 5 mM glucose + 10% dialyzed FBS, 0.00234 µM
[25] = RPMI 5 mM glucose + 10% dialyzed FBS, 0.00702 µM
[26] = RPMI 5 mM glucose + 10% dialyzed FBS, 0.0211 µM
[27] = RPMI 5 mM glucose + 10% dialyzed FBS, 0.0632 µM
[28] = RPMI 5 mM glucose + 10% dialyzed FBS, 0.19 µM
[29] = RPMI 5 mM glucose + 10% dialyzed FBS, 0.569 µM
[30] = RPMI 5 mM glucose + 10% dialyzed FBS, 1.71 µM
[31] = RPMI 5 mM glucose + 10% dialyzed FBS, 5.12 µM
[32] = RPMI 5 mM glucose + 10% dialyzed FBS, 15.4 µM
[33] = RPMI 5 mM glucose + 10% dialyzed FBS, 46.1 µM

SMILES | cell viability [1] [%] | cell viability [2] [%] | cell viability [3] [%] | cell viability [4] [%] | cell viability [5] [%] | cell viability [6] [%] | cell viability [7] [%] | cell viability [8] [%] | cell viability [9] [%] | cell viability [10] [%] | cell viability [11] [%] | cell viability [12] [%] | cell viability [13] [%] | cell viability [14] [%] | cell viability [15] [%] | cell viability [16] [%] | cell viability [17] [%] | cell viability [18] [%] | cell viability [19] [%] | cell viability [20] [%] | cell viability [21] [%] | cell viability [22] [%] | cell viability [23] [%] | cell viability [24] [%] | cell viability [25] [%] | cell viability [26] [%] | cell viability [27] [%] | cell viability [28] [%] | cell viability [29] [%] | cell viability [30] [%] | cell viability [31] [%] | cell viability [32] [%] | cell viability [33] [%]
CSC1=CC(=CC=C1)NC2=NC3=C(C=N2)/C=C(C(=O)N3C)/C4=C(Cl)C=CC=C4Cl | 96.6 | 114 | 118 | 101 | 119 | 101 | 108 | 107 | 115 | 114 | 108 | 96.1 | 124 | 128 | 109 | 118 | 101 | 121 | 118 | 103 | 116 | 102 | 84.7 | 95.5 | 104 | 91.3 | 120 | 118 | 109 | 112 | 111 | 94 | 108
COC[C@H](NC(=O)c1cnc(C)s1)C(=O)N[C@@H](COC)C(=O)N[C@@H](Cc1ccccc1)C(=O)[C@@]1(C)CO1 | 105 | 106 | 111 | 107 | 97.2 | 83.5 | 23.5 | 6.64 | 1.03 | 0.172 | 1.92 | 98.6 | 108 | 92.9 | 94.3 | 93.6 | 98.1 | 28.1 | 6.29 | 1.06 | 0.581 | 1.29 | 98.8 | 98.1 | 97.6 | 96.7 | 98.3 | 88.1 | 30.2 | 5.68 | 2.49 | 0.98 | 1.62
Cc1cc(O)c2c3c4c(cc(O)c13)C(C)(C)C(=O)c1c(O)cc(O)c(c1-4)C2=O | 125 | 121 | 107 | 115 | 109 | 112 | 115 | 99.2 | 114 | 101 | 7.32 | 106 | 109 | 109 | 101 | 88.6 | 101 | 90.5 | 104 | 101 | 85.2 | 26.1 | 89.5 | 95.2 | 118 | 98.9 | 109 | 86.5 | 107 | 107 | 112 | 114 | 36.5
CN1C(=O)\C(=C/C(=C1/NC2=C(F)C=C(I)C=C2)C(=O)NOCCO)C | 89.8 | 89.6 | 77.9 | 64.2 | 46.3 | 45.8 | 40.2 | 41.6 | 32.9 | 39.8 | 36.1 | 86 | 93.8 | 75.3 | 72 | 50.2 | 52.2 | 49.4 | 46.7 | 43.4 | 41.4 | 46.5 | 75 | 81.7 | 78.5 | 62.9 | 45.9 | 40.8 | 40 | 40.4 | 37.6 | 43.1 | 43.3
CCOC(=O)Nc1ccc(NCc2ccc(F)cc2)cc1N | 112 | 120 | 126 | 129 | 116 | 110 | 121 | 107 | 99.1 | 65.1 | 31.5 | 107 | 112 | 117 | 116 | 117 | 118 | 112 | 113 | 105 | 94.3 | 24.6 | 115 | 133 | 119 | 119 | 115 | 123 | 110 | 107 | 107 | 89.8 | 33.9
O=C1Nc2ccccc2/C1=C1\Nc2ccccc2C1=O | 105 | 116 | 112 | 112 | 99.1 | 97.7 | 110 | 96.4 | 112 | 102 | 90.5 | 93 | 87.4 | 97.6 | 103 | 103 | 94.7 | 93.7 | 88.7 | 96.2 | 85.6 | 86.9 | 98.2 | 95.9 | 109 | 100 | 88.1 | 93.9 | 89.4 | 94.3 | 89.4 | 89.1 | 84.9
Cc1c[nH]c(/C=C2\C(=O)Nc3ccccc32)c1CCC(=O)O | 109 | 114 | 116 | 101 | 90.1 | 102 | 95.3 | 83 | 82.2 | 61.3 | 50.7 | 125 | 124 | 114 | 122 | 122 | 116 | 121 | 116 | 103 | 70.6 | 68.1 | 123 | 126 | 121 | 110 | 109 | 111 | 118 | 104 | 91.7 | 77.1 | 58.6
O=C1c2c(O)cccc2[C@H]([C@@H]2O[C@H](CO)[C@@H](O)[C@H](O)[C@H]2O)c2cc(CO)cc(O)c21 | 87 | 101 | 97.9 | 77 | 110 | 122 | 102 | 102 | 111 | 93.4 | 97.5 | 87.8 | 91.8 | 81 | 80.8 | 94.5 | 79.8 | 80.3 | 83.1 | 83.1 | 85.8 | 84.6 | 84.7 | 80.2 | 106 | 88.3 | 87.6 | 96.6 | 96.3 | 86.6 | 89 | 83.1 | 94.6
Fc1cc(-c2cccc3ncc(-c4cnn(C5CCNCC5)c4)nc23)cc(F)c1CN1CCOCC1 | 111 | 122 | 130 | 132 | 108 | 124 | 135 | 103 | 42.6 | 21.5 | 16.1 | 109 | 107 | 119 | 102 | 111 | 116 | 114 | 105 | 84 | 29.4 | 18.3 | 128 | 115 | 124 | 122 | 125 | 103 | 119 | 103 | 95.2 | 54.9 | 25.9
N[C@@H](C(=O)N[C@H]1[C@H]2SC\C(=C(/N2C1=O)C(O)=O)Cl)C3=CC=CC=C3 | 123 | 124 | 125 | 136 | 150 | 119 | 126 | 108 | 134 | 145 | 135 |  |  |  |  |  |  |  |  |  |  |  |  |  |  |  |  |  |  |  |  |  | 
Clc1cccc(-c2nnnn2Cc2cccnc2)c1Cl | 82.8 | 92.7 | 96.4 | 99.9 | 92.4 | 93.1 | 79 | 57.2 | 49.8 | 48.6 | 33.1 | 80 | 87.1 | 89.5 | 84.1 | 91.5 | 89 | 90.5 | 62.9 | 55.8 | 57.2 | 48.5 | 81.5 | 83.6 | 91.1 | 93.6 | 83.7 | 83.2 | 83.9 | 52.5 | 59.1 | 58 | 47.8
NC1CCC(N[C@@H]2C[C@H]2c2ccccc2)CC1 (stereo not given in full) | 78.6 | 92.8 | 94.8 | 93.3 | 94.2 | 108 | 117 | 108 | 107 | 111 | 92 | 95.3 | 88.9 | 101 | 104 | 101 | 89.4 | 94.4 | 89.8 | 94.3 | 100 | 93.3 | 95.5 | 97 | 96 | 96.8 | 100 | 96.7 | 85.5 | 93.8 | 99.7 | 88 | 84
COc1ccc(/C=C\c2cc(OC)c(OC)c(OC)c2)cc1O | 43.4 | 51.5 | 49 | 49 | 44.6 | 47 | 41.7 | 36.6 | 36.1 | 25.3 | 23.2 | 32.1 | 33.7 | 31.2 | 31.2 | 31.7 | 26.6 | 22.5 | 22.1 | 23.3 | 19 | 14.7 | 37.3 | 35.2 | 40.9 | 38.7 | 34.9 | 33.4 | 31.8 | 30.7 | 27.8 | 23.4 | 20
Cc1ccc(-n2nc(C(C)(C)C)cc2NC(=O)Nc2ccc(OCCN3CCOCC3)c3ccccc23)cc1 | 104 | 103 | 119 | 123 | 114 | 104 | 111 | 115 | 120 | 114 | 96 | 102 | 101 | 113 | 103 | 104 | 97.1 | 107 | 106 | 95.8 | 95.4 | 98.1 | 88.2 | 105 | 111 | 106 | 106 | 108 | 118 | 120 | 99.9 | 107 | 96.2

Reference: the supplement of paper PMC11451515
